Values after ≈ are worked out from the molar mass of the structure shown. “Also recorded” adds a separate entry of the source. Structures can show the parent of a compound that is named as a salt.
Columns and labels:
[1] = physchem
Procedure: The aliquot volumes were typically 25-100 μL.
From the infrared (IR) transmission data of the sample vials, dissolution and precipitation events were recorded as the point of complete transmission of IR and the onset of turbidity by IR respectively.
Samples were held at ambient temperature for 18 hours to maximize the chance of precipitation. Any recoverable solids were analyzed by XRPD.

[2] = physchem; conditions: water, thermodynamic from solid
Procedure: The aliquot volumes were typically 10-20 μL. Complete dissolution of the test material was determined by visual inspection. The solubility was estimated from these experiments based on the total solvent used to provide complete dissolution.

[3] = Humidity and temperature stressing of AAT-730 free base (XRPD, 1H NMR); format: physicochemical; conditions: for XRPD analysis of post-stressed sample (physical form): 7 days
Procedure: The stability was also tested at a range of elevated relative humidity conditions for 7 days.

[4] = Solubility estimation of AAT-730 by aliquot addition; format: physicochemical; conditions: for Solubility range: 20° C.
Procedure: The aliquot volumes were typically 20-200 μL. […] Samples were held at ambient temperature for at least 18 hours to maximize the chance of precipitation. Any recoverable solids were analyzed by XRPD.

[5] = Thermal stressing of AAT-730 free base forms (Method 2-9); format: physicochemical; conditions: for XRPD after thermal stress: sealed vial, several days
[6] = Salt screening experiments of AAT-730 (XRPD of isolated solids); conditions: salt screen
Procedure: Solutions of the free base in the chosen solvent were added to either solutions of the salt former, or if the salt was not soluble in the solvent, slurries of the salt formers. Any solids which precipitated were recovered and analyzed by XRPD analysis to determine if the solid was crystalline.
The required acid (1 molar equivalent) was added to each HPLC vial and the API stock solution (containing 30 mg of API) was added. The mixtures were stirred at 300 rpm (ambient temperature) for up to 16 hours. Any solids which precipitated were isolated by centrifugation, solvent decanted and solids dried with thin strips of filter paper prior to analysis by XRPD. Any solutions were evaporated to dryness and solids analyzed by XRPD. Gels were either triturated or temperature cycled in MTBE.
API (30 mg), acid co-former (1 mol. eq.) and ethanol (300 μL) were added to HPLC vials and stirred at 40° C. for up to 16 hours. Solids were recovered by centrifugation, solvent decanted and dried with thin strips of filter paper prior to analysis by XRPD. Solutions were evaporated to dryness.
Gels isolated from the screening experiments were triturated in either MTBE or EtOAc to induce precipitation. MTBE or EtOAc (200 μL) was added to the gel and stirred at 40° C. for up to 3 hours prior to cooling to ambient and stirring for up to 48 hours. Any solids were isolated by centrifugation, solvent decanted and solids dried with thin strips of filter paper prior to analysis by XRPD. Any solutions were evaporated to dryness.
Gels isolated from screening experiments were temperature cycled in MTBE according to the following program: • Heating from 20° C. to 40° C. at 0.2° C./minute. • Cooling to 20° C. at 0.1° C./minute. • Stirring speed 400 rpm.
The vials were sealed and the contents milled using a Fritsch Pulverisette 5 planetary mill (30 repetitions of 20 minutes milling at 400 rpm and 20 minutes pause). The resultant material was analyzed using XRPD.
Some of the acid co-formers had pKa values which were suitable for forming either hemi or bis-salts and experiments were carried out using these acids. Crystalline solids were isolated from the experiments using 0.5 mol. eq. of EDSA but these appeared to be composed of polymorphs of the free base and salt formation hadn't occurred with 0.5 mol. eq. of EDSA. The EDSA salt formed with 2 mol. eq. of EDSA yielded solids with the same XRPD pattern as the mono-EDSA salt. Two different crystalline salts were isolated from the reactions with HCl and these may be the mono and bis-HCl salts, however stoichiometry cannot be determined by ^1H NMR. The salt formation with MSA yielded the bis-MSA salt and this is discussed in Example 3-16. The salt isolated with glutaric acid has the same XRPD pattern as the salt isolated with 1 mol. eq. of glutaric acid and is a mono-glutarate salt (Example 3-17). A solid was isolated from the experiment with 2 mol. eq. of sulfuric acid and this may be a sulfate.

[7] = physchem; conditions: 25 °C, pH 6.6, water, thermodynamic from solid
Procedure: The mixture was stirred and after 30 minutes a thick suspension was formed. Further aliquots (20 μL) of water were added until a fine suspension was formed. This was stirred at 25° C. overnight and filtered to yield a clear solution. The solution was weighed and evaporated to constant weight to determine the solubility.

## CN(C)CCn1c(CC(C)(C)C)nc2cc(S(=O)(=O)C3CN(CCO)C3)ccc21 [AAT-730 HCl salt Pattern 1]
[1]; DMSO/water (80/20), ambient temperature, aliquot addition
  solubility: greater than or equal to 20 mg/mL
[2]
  solubility: 164 to 205 mg/mL

## CN(C)CCn1c(CC(C)(C)C)nc2cc(S(=O)(=O)C3CN(CCO)C3)ccc21 [AAT-730, 2-[3-({1-[2-(dimethylamino)ethyl]-2-(2,2-dimethylpropyl)-1H-1,3-benzodiazol-5-yl}sulfonyl)azetidin-1-yl]ethan-1-ol]
[3]; 1 week at 25° C./60% RH, 40° C./75% RH, 70° C./75% RH
  1H NMR analysis of post-stressed samples: no change
[3]; 25° C./60% RH
  XRPD analysis of post-stressed sample (physical form): remained as an anhydrate
[3]; 40° C./75% RH, listed as AAT-730 free base
  XRPD analysis of post-stressed sample (physical form): change in form to the hydrate; also recorded: converted to a hydrate
[3]; 70° C./75% RH, listed as AAT-730 free base
  XRPD analysis of post-stressed sample (physical form): change in form to the hydrate; also recorded: converted to a hydrate
[4]; 2-propanol, isopropyl alcohol (IPA)
  Solubility range: 81 to 87 mg/mL
[4]; EtOH/water (96/4, Aw at most 0.25)
  Solubility range: 313 to 417 mg/mL
[4]; MeOH/water (84/16, Aw at most 0.44)
  Solubility range: 638 to 1275 mg/mL
[4]; THF/water (96/4, Aw at most 0.74)
  Solubility range: 410 to 615 mg/mL
[4]; acetone
  Solubility range: 118 to 157 mg/mL
[4]; acetone/water (50/50, Aw at most 0.91)
  Solubility range: 618 to 1235 mg/mL
[4]; acetonitrile (ACN)
  Solubility range: 145 to 164 mg/mL
[4]; anisole
  Solubility range: 58 to 60 mg/mL
[4]; cyclohexane
  Solubility range: <24 mg/mL
[4]; dichloromethane (DCM)
  Solubility range: 360 to 504 mg/mL
[4]; dimethyl sulfoxide (DMSO)
  Solubility range: 242 to 303 mg/mL
[4]; dioxane
  Solubility range: 117 to 129 mg/mL
[4]; ethanol (EtOH)
  Solubility range: 213 to 256 mg/mL
[4]; ethyl acetate (EtOAc)
  Solubility range: 27 to 28 mg/mL
[4]; methanol (MeOH)
  Solubility range: >510 mg/mL
[4]; methyl isobutyl ketone (MIBK)
  Solubility range: <26 mg/mL
[4]; methyl tert-butyl ether (MTBE)
  Solubility range: <26 mg/mL
[4]; tetrahydrofuran (THF)
  Solubility range: 246 to 492 mg/mL
[4]; thermodynamic from solid, water, ambient temperature, aliquot addition, read-out: aqueous solubility
  solubility: 367 to 514 mg/mL (≈ 868 to 1220 mM)
[4]; toluene
  Solubility range: <25 mg/mL
[5]; 40° C.
  XRPD after thermal stress: Pattern A +
[5]; 60° C.
  XRPD after thermal stress: Pattern A +
[5]; at the temperatures tested (40 or 60° C.)
  physical stability to thermal stressing: physically unstable
[6]; EDSA 2 mol. eq., THF, sample CAT0001E-019-04
  XRPD Result: AAT-730 EDSA
[6]; H2SO4 2 mol. eq., THF, sample CAT0001E-019-08
  XRPD Result: possible sulfate Pattern B
[6]; HCl 2 mol. eq., EtOH, sample CAT0001E-019-05B
  XRPD Result: AAT-730 HCl Pattern B
[6]; HCl 2 mol. eq., THF, sample CAT0001E-019-05
  XRPD Result: AAT-730 HCl Pattern A**
[6]; L-aspartic acid 0.5 mol. eq., THF, sample CAT0001E-019-09
  XRPD Result: API
[6]; L-glutamic acid 0.5 mol. eq., THF, sample CAT0001E-019-11
  XRPD Result: API
[6]; MSA 2 mol. eq., THF, sample CAT0001E-019-06
  XRPD Result: AAT-730 MSA Pattern B
[6]; glutaric acid 0.5 mol. eq., THF, sample CAT0001E-019-12
  XRPD Result: AAT-730 glutarate

## CN(C)CCn1c(CC(C)(C)C)nc2cc(S(=O)(=O)C3CN(CCO)C3)ccc21 [AAT-730 HCl salt Pattern 2]
[1]; pH 6, water, thermodynamic from solid, aqueous solubility, water, pH 6-7, aliquot addition
  solubility: 197 to 263 mg/mL

## CN(C)CCn1c(CC(C)(C)C)nc2cc(S(=O)(=O)C3CN(CCO)C3)ccc21 [AAT-730 HCl salt, HCl salt of 2-[3-({1-[2-(dimethylamino)ethyl]-2-(2,2-dimethylpropyl)-1H-1,3-benzodiazol-5-yl}sulfonyl)azetidin-1-yl]ethan-1-ol]
[7]
  solubility thermodynamic: ~220 mg/mL
[1]; 20 °C, aqueous with cosolvent or surfactant or cyclodextrin, thermodynamic from solid, Solubility at 20° C., EtOH/water (50/50), aliquot addition
  solubility: 205 to 273 mg/mL
[1]; 20 °C, organic solvent or mixture, thermodynamic from solid, Solubility at 20° C., DMSO/water (80/20, Aw at most 0.27), aliquot addition
  solubility: 22 to 25 mg/mL
[1]; 20 °C, organic solvent or mixture, thermodynamic from solid, Solubility at 20° C., THF/water (13/1, Aw at most 0.9), aliquot addition
  solubility: < 20 mg/mL
[1]; 20 °C, organic solvent or mixture, thermodynamic from solid, Solubility at 20° C., acetone, aliquot addition
  solubility: < 20 mg/mL
[1]; 20 °C, organic solvent or mixture, thermodynamic from solid, Solubility at 20° C., acetone/water (20/1, Aw at most 0.6), aliquot addition
  solubility: < 20 mg/mL
[1]; 20 °C, organic solvent or mixture, thermodynamic from solid, Solubility at 20° C., acetonitrile, aliquot addition
  solubility: < 21 mg/mL
[1]; 20 °C, organic solvent or mixture, thermodynamic from solid, Solubility at 20° C., dichloromethane, aliquot addition
  solubility: < 20 mg/mL
[1]; 20 °C, organic solvent or mixture, thermodynamic from solid, Solubility at 20° C., ethanol, aliquot addition
  solubility: < 21 mg/mL
[1]; 20 °C, organic solvent or mixture, thermodynamic from solid, Solubility at 20° C., methanol, aliquot addition
  solubility: < 20 mg/mL
[1]; 20 °C, organic solvent or mixture, thermodynamic from solid, Solubility at 20° C., tetrahydrofuran, aliquot addition
  solubility: < 20 mg/mL
[1]; aqueous with cosolvent or surfactant or cyclodextrin, thermodynamic from solid, solubility
  solubility: ≥ 20 mg/mL
[1]; organic solvent or mixture, thermodynamic from solid, solubility, DMSO/water (80/20), ambient temperature, aliquot addition
  solubility: ≥ 20 mg/mL
